Measured values: ChEMBL document CHEMBL4840335, “Rational Design and Development of Novel CDK9 Inhibitors for the Treatment of Acute Myeloid Leukemia” (J Med Chem, 2021)
The source made the active and inactive calls. The rule behind the calls is not given here.

What was measured:
[1] = molecular target: Vascular endothelial growth factor receptor 1 (Homo sapiens, UniProt P17948); experiment: Inhibition of VEGFR1 (unknown origin)
MV4-11 [2] = experiment: Antitumor activity against human MV4-11 cells xenografted in Nu/Nu mouse assessed as inhibition of tumor growth at 7.5 mg/kg, po administered for 21 consecutive days by digital caliper method relative to control; type: functional; conditions: MV4-11, po, 504 h, time 21 day
CCRF-CEM = experiment: Antiproliferative activity against human CCRF-CEM cells assessed as reduction in cell proliferation measured after 3 to 7 days by MTS assay; type: functional, cell-based
MV4-11 [3] = experiment: Induction of apoptosis in human MV4-11 cells assessed as activation of caspase-3 at 5 to 50 nM measured after 24 hrs by Western blot analysis; type: functional, cell-based; conditions: dose 5-50 nM
[4] = molecular target: Tyrosine-protein kinase receptor TYRO3 (Homo sapiens, UniProt Q06418); experiment: Inhibition of TYRO3 (unknown origin)
[5] = molecular target: Tyrosine-protein kinase receptor UFO (Homo sapiens, UniProt P30530); experiment: Inhibition of AXL (unknown origin)
[6] = molecular target: Discoidin domain-containing receptor 2 (Homo sapiens, UniProt Q16832); experiment: Inhibition of DDR2 (unknown origin)
MV4-11 [7] = experiment: Induction of apoptosis in human MV4-11 cells assessed as live cells at 50 nM measured after 24 hrs by annexinV-FITC/propidium iodide staining based flow cytometry (reference value: 95.14 %); type: functional
[8] = molecular target: Cyclin-dependent kinase 9 (Homo sapiens) (UniProt P50750); experiment: Inhibition of CDK9 in human MV4-11 cells assessed as reduction in RNAP2 phosphorylation at ser2 residues at 1 to 10 uM after 12 hrs by Western blot analysis; type: cell-based; conditions: dose 1-10 µM
Raji = experiment: Antiproliferative activity against human Raji cells assessed as reduction in cell proliferation measured after 3 to 7 days by MTS assay; type: functional, cell-based
CDK9/cyclin T1 = CDK9/cyclin T1 (Homo sapiens, UniProt P50750); experiment: Inhibition of CDK9/cyclin T1 (unknown origin) incubated for 2 hrs in presence of ATP by FRET based LANCE assay; type: protein-complex assay
MV4-11 [9] = experiment: Induction of apoptosis in human MV4-11 cells assessed as downregulation of BCL2 at 1 to 10 uM measured after 12 hrs by Western blot analysis; type: functional, cell-based; conditions: dose 1-10 µM
Kasumi 1 = experiment: Antiproliferative activity against human Kasumi 1 cells assessed as reduction in cell proliferation measured after 3 to 7 days by MTS assay; type: functional, cell-based
[10] = molecular target: Platelet-derived growth factor receptor alpha (Homo sapiens, UniProt P16234); experiment: Inhibition of PDGFRA (unknown origin)
[11] = molecular target: Cyclin-dependent kinase 6 (Homo sapiens, UniProt Q00534); experiment: Inhibition of CDK6 (unknown origin)
MV4-11 [12] = experiment: Induction of apoptosis in human MV4-11 cells assessed as necrotic cells at 10 nM measured after 24 hrs by annexinV-FITC/propidium iodide staining based flow cytometry (reference value: 1.03 %); type: functional
[13] = Tmax in ICR mouse at 20 mg/kg, po measured up to 24 hrs; type: ADME, organism-based; conditions: in vivo
[14] = Cmax in ICR mouse at 20 mg/kg, po measured up to 24 hrs; type: ADME, organism-based; design: route oral, dose 20 mg/kg, time <=24; conditions: in vivo
[15] = molecular target: Proto-oncogene tyrosine-protein kinase Src (Homo sapiens, UniProt P12931); experiment: Inhibition of SRC (unknown origin)
MV4-11 [16] = experiment: Induction of apoptosis in human MV4-11 cells assessed as necrotic cells at 50 nM measured after 24 hrs by annexinV-FITC/propidium iodide staining based flow cytometry (reference value: 1.03 %); type: functional
[17] = MRT in ICR mouse at 2 mg/kg, iv measured up to 24 hrs; type: ADME, organism-based; conditions: in vivo
[18] = molecular target: Serine/threonine-protein kinase 17B (Homo sapiens, UniProt O94768); experiment: Inhibition of DRAK2 (unknown origin)
[19] = MRT in ICR mouse at 20 mg/kg, po measured up to 24 hrs; type: ADME, organism-based; conditions: in vivo
[20] = AUClast in ICR mouse at 2 mg/kg, iv measured up to 24 hrs; type: ADME, organism-based; design: route intravenous, dose 2 mg/kg, time <=24; conditions: in vivo
[21] = Observed clearance in ICR mouse at 2 mg/kg, iv measured up to 24 hrs; type: ADME, organism-based; conditions: in vivo
MV4-11 [22] = experiment: Induction of apoptosis in human MV4-11 cells assessed as live cells at 10 nM measured after 24 hrs by annexinV-FITC/propidium iodide staining based flow cytometry (reference value: 95.14 %); type: functional
MV4-11 [23] = experiment: Induction of apoptosis in human MV4-11 cells assessed as early apoptotic cells at 10 nM measured after 24 hrs by annexinV-FITC/propidium iodide staining based flow cytometry (reference value: 0.79 %); type: functional
MV4-11 [24] = experiment: Induction of apoptosis in human MV4-11 cells assessed as activation of cleaved PARP at 5 to 50 nM measured after 24 hrs by Western blot analysis; type: functional, cell-based; conditions: dose 5-50 nM
OCI-Ly10 = experiment: Antiproliferative activity against human OCILY10 cells assessed as reduction in cell proliferation measured after 3 to 7 days by MTS assay; type: functional, cell-based
[25] = molecular target: Serine/threonine-protein kinase Chk1 (Homo sapiens, UniProt O14757); experiment: Inhibition of CHK1 (unknown origin)
[26] = Oral bioavailability in ICR mouse at 20 mg/kg measured up to 24 hrs; type: ADME, organism-based; conditions: in vivo
[27] = molecular target: Fibroblast growth factor receptor 1 (Homo sapiens, UniProt P11362); experiment: Inhibition of FGFR1 (unknown origin)
[28] = molecular target: Insulin-like growth factor 1 receptor (Homo sapiens, UniProt P08069); experiment: Inhibition of IGF1R (unknown origin)

Sequence of Tyrosine-protein kinase receptor TYRO3 (Q06418 whole entry): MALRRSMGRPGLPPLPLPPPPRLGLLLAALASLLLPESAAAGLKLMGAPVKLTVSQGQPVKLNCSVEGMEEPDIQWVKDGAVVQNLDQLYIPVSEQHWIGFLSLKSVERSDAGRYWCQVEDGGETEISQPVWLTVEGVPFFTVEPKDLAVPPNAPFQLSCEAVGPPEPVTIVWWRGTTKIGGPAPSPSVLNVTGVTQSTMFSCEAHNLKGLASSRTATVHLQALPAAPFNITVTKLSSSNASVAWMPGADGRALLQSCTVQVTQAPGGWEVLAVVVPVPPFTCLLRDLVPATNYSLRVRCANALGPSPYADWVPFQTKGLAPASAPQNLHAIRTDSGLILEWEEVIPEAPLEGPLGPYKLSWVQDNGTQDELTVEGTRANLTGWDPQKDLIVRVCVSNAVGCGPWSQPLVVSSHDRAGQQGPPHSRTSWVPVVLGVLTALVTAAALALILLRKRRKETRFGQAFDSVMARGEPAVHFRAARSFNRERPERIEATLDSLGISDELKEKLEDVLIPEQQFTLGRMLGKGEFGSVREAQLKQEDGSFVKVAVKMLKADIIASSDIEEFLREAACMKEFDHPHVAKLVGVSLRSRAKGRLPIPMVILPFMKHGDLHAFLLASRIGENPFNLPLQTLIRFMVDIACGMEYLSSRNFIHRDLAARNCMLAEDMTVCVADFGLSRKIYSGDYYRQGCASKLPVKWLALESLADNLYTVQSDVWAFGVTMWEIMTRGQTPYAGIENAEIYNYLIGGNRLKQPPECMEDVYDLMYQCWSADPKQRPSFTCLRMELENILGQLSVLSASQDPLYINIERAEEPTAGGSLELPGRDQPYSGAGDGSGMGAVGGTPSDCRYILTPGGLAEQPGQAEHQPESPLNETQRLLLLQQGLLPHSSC
Sequence of Serine/threonine-protein kinase Chk1 (O14757 whole entry): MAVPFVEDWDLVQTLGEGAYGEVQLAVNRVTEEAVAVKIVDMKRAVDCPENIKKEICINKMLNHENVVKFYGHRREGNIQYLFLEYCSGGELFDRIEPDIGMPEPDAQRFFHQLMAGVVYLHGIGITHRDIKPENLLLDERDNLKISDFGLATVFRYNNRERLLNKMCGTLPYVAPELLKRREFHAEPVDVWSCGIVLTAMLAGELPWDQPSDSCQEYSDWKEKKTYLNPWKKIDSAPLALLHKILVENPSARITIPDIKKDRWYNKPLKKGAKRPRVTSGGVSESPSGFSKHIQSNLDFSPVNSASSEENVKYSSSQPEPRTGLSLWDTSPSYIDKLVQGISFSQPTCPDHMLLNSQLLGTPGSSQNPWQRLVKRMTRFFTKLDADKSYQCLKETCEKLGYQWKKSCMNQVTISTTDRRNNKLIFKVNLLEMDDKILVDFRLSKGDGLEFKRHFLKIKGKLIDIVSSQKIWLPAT
Sequence of Discoidin domain-containing receptor 2 (Q16832 whole entry, the tested form may be a part): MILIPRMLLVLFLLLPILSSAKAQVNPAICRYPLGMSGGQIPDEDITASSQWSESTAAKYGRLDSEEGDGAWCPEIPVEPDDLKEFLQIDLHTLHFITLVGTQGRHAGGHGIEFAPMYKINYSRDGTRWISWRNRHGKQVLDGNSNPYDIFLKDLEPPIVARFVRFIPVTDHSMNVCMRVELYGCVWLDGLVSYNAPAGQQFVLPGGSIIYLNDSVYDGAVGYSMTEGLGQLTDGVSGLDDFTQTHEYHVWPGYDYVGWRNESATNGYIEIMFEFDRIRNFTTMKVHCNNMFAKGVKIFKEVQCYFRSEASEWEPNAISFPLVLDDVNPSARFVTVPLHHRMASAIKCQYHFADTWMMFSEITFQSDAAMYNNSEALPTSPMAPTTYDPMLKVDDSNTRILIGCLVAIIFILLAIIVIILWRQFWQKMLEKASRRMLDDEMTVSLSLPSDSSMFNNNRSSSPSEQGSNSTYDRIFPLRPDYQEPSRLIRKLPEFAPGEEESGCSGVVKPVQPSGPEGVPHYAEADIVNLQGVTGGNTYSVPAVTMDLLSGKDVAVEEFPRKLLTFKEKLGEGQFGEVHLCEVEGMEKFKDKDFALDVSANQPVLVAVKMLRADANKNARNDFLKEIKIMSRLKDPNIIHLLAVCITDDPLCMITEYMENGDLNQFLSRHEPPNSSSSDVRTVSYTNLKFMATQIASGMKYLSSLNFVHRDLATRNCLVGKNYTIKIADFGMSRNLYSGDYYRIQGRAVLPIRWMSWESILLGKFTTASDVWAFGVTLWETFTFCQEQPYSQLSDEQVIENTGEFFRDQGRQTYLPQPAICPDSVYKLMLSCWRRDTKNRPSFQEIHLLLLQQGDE
Sequence of Tyrosine-protein kinase receptor UFO (P30530 whole entry, the tested form may be a part): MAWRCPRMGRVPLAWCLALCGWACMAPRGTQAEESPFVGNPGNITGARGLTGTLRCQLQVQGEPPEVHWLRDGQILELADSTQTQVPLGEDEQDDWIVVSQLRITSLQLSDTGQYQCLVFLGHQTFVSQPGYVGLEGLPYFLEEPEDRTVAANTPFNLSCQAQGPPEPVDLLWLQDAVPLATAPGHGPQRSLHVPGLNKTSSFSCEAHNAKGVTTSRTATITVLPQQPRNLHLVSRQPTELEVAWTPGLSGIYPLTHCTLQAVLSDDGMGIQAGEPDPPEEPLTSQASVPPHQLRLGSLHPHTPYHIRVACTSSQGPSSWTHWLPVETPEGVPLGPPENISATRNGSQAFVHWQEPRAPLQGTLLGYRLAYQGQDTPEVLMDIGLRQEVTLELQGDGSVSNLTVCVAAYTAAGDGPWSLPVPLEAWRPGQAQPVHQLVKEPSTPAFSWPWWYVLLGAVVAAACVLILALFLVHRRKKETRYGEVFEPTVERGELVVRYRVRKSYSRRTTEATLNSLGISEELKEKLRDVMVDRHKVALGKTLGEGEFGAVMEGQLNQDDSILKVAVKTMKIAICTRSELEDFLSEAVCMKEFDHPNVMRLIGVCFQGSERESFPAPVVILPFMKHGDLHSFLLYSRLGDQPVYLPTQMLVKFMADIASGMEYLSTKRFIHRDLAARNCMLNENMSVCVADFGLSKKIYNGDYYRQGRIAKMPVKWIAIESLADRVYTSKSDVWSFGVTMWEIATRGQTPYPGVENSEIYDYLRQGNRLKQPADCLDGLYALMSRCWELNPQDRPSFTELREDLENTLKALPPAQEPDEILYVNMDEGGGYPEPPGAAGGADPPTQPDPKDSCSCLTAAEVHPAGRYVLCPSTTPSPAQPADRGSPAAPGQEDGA
Sequence of Vascular endothelial growth factor receptor 1 (P17948 whole entry): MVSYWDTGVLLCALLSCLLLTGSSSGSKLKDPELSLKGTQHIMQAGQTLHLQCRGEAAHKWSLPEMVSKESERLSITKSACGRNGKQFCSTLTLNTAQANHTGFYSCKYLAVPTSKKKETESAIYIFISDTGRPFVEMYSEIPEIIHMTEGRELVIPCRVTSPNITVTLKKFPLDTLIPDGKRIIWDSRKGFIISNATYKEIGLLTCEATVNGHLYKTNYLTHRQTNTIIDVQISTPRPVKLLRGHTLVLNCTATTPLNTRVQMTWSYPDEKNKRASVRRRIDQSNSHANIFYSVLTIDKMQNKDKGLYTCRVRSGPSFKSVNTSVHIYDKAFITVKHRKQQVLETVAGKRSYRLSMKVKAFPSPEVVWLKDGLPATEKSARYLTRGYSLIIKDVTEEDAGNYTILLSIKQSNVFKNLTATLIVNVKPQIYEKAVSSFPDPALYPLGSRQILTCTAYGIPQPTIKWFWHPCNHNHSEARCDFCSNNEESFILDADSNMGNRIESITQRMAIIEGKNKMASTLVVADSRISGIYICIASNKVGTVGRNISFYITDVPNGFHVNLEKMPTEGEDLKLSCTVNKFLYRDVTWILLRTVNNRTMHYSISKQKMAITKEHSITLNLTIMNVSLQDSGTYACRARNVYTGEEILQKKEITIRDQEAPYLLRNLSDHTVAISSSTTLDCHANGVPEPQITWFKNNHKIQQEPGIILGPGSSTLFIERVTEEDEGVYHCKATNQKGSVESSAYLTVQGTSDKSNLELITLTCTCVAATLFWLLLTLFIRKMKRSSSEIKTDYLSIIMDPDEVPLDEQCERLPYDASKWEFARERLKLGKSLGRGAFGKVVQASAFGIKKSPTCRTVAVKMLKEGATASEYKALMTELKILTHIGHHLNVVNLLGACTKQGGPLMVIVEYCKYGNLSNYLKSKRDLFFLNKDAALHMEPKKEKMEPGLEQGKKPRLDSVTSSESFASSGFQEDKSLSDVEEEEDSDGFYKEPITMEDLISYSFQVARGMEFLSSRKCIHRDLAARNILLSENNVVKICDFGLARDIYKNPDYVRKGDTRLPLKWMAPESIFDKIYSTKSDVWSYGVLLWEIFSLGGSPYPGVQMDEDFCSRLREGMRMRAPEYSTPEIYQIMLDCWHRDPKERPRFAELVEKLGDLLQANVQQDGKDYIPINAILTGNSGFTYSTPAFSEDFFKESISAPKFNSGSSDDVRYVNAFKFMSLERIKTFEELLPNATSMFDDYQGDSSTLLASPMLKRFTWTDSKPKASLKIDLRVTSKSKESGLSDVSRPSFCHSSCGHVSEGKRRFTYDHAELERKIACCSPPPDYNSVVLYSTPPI
Sequence of Cyclin-dependent kinase 9 (Homo sapiens) (P50750 whole entry): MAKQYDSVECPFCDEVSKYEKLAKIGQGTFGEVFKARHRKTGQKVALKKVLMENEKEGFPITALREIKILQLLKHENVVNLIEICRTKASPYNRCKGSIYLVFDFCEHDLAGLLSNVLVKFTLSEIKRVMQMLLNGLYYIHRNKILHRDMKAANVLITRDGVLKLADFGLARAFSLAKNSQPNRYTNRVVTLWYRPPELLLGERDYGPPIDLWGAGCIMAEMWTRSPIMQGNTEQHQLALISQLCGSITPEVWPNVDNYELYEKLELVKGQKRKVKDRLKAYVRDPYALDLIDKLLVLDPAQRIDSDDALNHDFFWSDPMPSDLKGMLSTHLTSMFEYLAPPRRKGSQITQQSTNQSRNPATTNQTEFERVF

Cc1n[nH]c2ccc(-c3cc(N[C@@H](CO)c4ccccc4)cnc3Cl)cc12
IC50 [1]: > 1000 nM | inhibition in vivo at 7.5 mg/kg (MV4-11 [2]): 77.4% | IC50 (CCRF-CEM): 2.1 nM | Activity (MV4-11 [3]): Active | IC50 [4]: > 1000 nM | IC50 [5]: > 1000 nM | IC50 [6]: > 1000 nM | Activity (MV4-11 [7]): 76.29% | inhibition [8]: inactive | IC50 (Raji): 37 nM | IC50 (CDK9/cyclin T1): 5.41 nM | Activity (MV4-11 [9]): inactive | IC50 (Kasumi 1): 21 nM | IC50 [10]: > 1000 nM | IC50 [11]: > 1000 nM | Activity (MV4-11 [12]): 0.84% | Tmax [13]: 4.98 min | Cmax [14]: 1570 ng/mL | IC50 [15]: > 1000 nM | Activity (MV4-11 [16]): 3.59% | MRT [17]: 43.8 min | IC50 [18]: > 1000 nM | MRT [19]: 359 min | AUC(0-t) at 24 h [20]: 553 ng·h/mL | clearance [21]: 60 mL/min/kg | Activity (MV4-11 [22]): 94.45% | Activity (MV4-11 [23]): 1.76% | Activity (MV4-11 [24]): Active | IC50 (OCI-Ly10): 3.2 nM | IC50 [25]: > 1000 nM | bioavailability [26]: 33.7% | IC50 [27]: > 1000 nM | IC50 [28]: > 1000 nM
